Reference: patent US20010003751A1, “Pharmaceutical composition for treating transient ischemic attack” (priority 1995, published 2001)

Tested on: transient ischemic attack (TIA) associated with the internal carotid arterial system
Assay: phase III clinical study of TIA (efficacy in suppressing TIA recurrence, overall safety, utility ratings)
Assay type: in vivo, human (TIA patients)
Settings: TIA patients; for Efficacy (%): Effective / Efficacy (%): Indeterminable / Efficacy (%): Ineffective / Efficacy (%): Slightly Effective / Efficacy (%): Worsened: ITT
Description: Subjects and total number: The subjects of this study were patients who developed one or more TIA attacks associated with the internal carotid arterial system (NIH Diagnostic Criteria, 1990) during the 3-month period before initial administration (171 for efficacy and utility, 175 for safety). Tablets each containing 50 mg or 100 mg of the subject compound obtained in Example 1 were orally administered after breakfast once daily for 18 months. The study was conducted in double blind fashion. As regards conversion to cerebral infarction, temporal changes in TIA onset frequency, TIA symptoms and duration, etc., efficacy was rated at 6 months, 1 year and 18 months of administration, using a 5-grade rating system: The attack frequency at time of rating (during therapeutic period) 1 year and 18 months after initial administration served as an efficacy rating index. For rating at 6 months of administration and rating at less than 1 year due to discontinuation (adverse reactions etc.), rating was in regard to duration of administration period, with reference to the following rating criteria. [table] Overall safety was rated on the basis of adverse reactions, complications, and presence or absence of abnormal changes in clinical laboratory parameters and their degrees, using a 5-grade rating system: On the basis of efficacy and overall safety ratings for suppression of TIA recurrence, utility was rated using a 5-grade rating system: With regard to the above rating items, data were analyzed using ITT (intent-to-treat analysis), with the utility rating in overall assessment at final administration (18 months after administration) as the major item.

[1] = 50 mg/day oral once daily for 18 months, 86 patients
[2] = 50 mg/day oral once daily for 18 months, 85 patients
[3] = 100 mg/day oral once daily for 18 months, 89 patients
[4] = 100 mg/day oral once daily for 18 months, 86 patients

With `O=C(O)CCCC/C=C(\c1ccccc1)c1cccnc1` [Test compound, (E)-7-(3-pyridyl)-7-phenyl-6-heptenic acid] the “Overall Safety (%): Considerably Problematic” value [1] was 1.2%, the “Overall Safety (%): Indeterminable” value [1] was 4.7% and the “Overall Safety (%): No Problem” value [1] was 86.0%. For the same compound, the “Overall Safety (%): Slightly Problematic” value [1] was 8.1%, the “Overall Safety (%): Very Problematic” value [1] was 0% and the “Efficacy (%): Effective” value [2] was 64.7%. The “Efficacy (%): Indeterminable” value [2] was 10.6%, the “Efficacy (%): Ineffective” value [2] was 16.5% and the “Efficacy (%): Slightly Effective” value [2] was 2.3%. For the same compound, the “Efficacy (%): Worsened” value [2] was 5.9%, the “Overall Safety (%): Considerably Problematic” value [3] was 1.1% and the “Overall Safety (%): Indeterminable” value [3] was 3.4%. For the same compound, the “Overall Safety (%): No Problem” value [3] was 79.8%, the “Overall Safety (%): Slightly Problematic” value [3] was 13.5% and the “Overall Safety (%): Very Problematic” value [3] was 2.2%. For the same compound, the “Efficacy (%): Effective” value [4] was 66.3%, the “Efficacy (%): Indeterminable” value [4] was 11.6% and the “Efficacy (%): Ineffective” value [4] was 8.1%. The “Efficacy (%): Slightly Effective” value [4] was 7.0% and the “Efficacy (%): Worsened” value [4] was 7.0%.
